Results on one compound are retold here after BindingDB's records for doi:10.1016/j.bmc.2006.09.055 (University of Cape Town, 2007).

In the assay the target is T1, Falcipain 2 (Plasmodium falciparum, UniProt Q9N6S8).
T1 sequence (Q9N6S8 whole entry): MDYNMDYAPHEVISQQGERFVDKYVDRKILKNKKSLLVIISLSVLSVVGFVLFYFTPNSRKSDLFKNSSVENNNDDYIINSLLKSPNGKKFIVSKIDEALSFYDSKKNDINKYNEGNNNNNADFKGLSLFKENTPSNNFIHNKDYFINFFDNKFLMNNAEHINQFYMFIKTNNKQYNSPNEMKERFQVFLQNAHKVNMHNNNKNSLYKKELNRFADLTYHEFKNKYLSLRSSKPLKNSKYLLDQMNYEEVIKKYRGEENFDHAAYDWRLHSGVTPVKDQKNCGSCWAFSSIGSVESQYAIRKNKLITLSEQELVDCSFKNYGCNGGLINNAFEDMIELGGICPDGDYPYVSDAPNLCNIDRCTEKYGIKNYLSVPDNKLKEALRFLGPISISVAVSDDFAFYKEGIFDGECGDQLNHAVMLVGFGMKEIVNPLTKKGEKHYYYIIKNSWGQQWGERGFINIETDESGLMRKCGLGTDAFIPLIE
Put plainly: Falcipain-2 Inhibition Assay. As to conditions: pH 5.5; 22 °C. The protocol:
IC50 values against the recombinant falcipain-2 were determined by incubating protein with different concentrations of inhibitors in reaction buffer after addition of the substrate. Fluorescence was continuously monitored for 30 min at room temperature in a Labsystems Fluoroscan Ascent spectrofluorometer. IC50 values were determined from plots of activity over inhibitor concentration with GraphPad Prism software.

pIC50: −log10 of the molar value. Some results are limits rather than exact numbers.

In the case of `NC(=S)NN=Cc1ccc(O)cc1O` [2,4-dihydroxybenzaldehyde thiosemicarbazone], the pIC50 is below 4.70.
